The source of these data is patent EP0370481A2, “Pharmaceutical preparations for the enhanced resorption of antibacterial compounds” (priority 1988, dated 1990).

Series [1] can be described thus: Rectal absorption in vivo (monkeys): suppositories, plasma level. The source says:
Für diesen Versuch wurden männliche und weibliche erwachsene Affen (Papio anubis und Papio hamadryas) im Gewicht vom 12-27 kg verwendet, die 24 Stunden vor der Verabreichung des Antibiotikums fasten gelassen wurden, dann durch i.m.-Injektionen von Kefamin Hydrochlorid vor der Verabreichung des Antibiotikums sediert wurden. Aus den nachstehend beschriebenen Formulierungen wurden Suppositorien hergestellt die den Tieren verabreicht wurden. Die Rektalöffnungen wurden dann mit Klebeband verschlossen, um ein Herausdrücken der Suppositorienmasse zu vermeiden.
Zur Messung der Resorption des Antibiotikums in den Blutstrom wurden Blutproben aus der Femoralregion vor der Verabreichung des Antibiotikums und 15, 30, 60, 120, 240, 360 und 480 Minuten danach entnommen. Proben wurden zentrifugiert und wie oben beschrieben vermessen.

A short description of series [2]: Enteral absorption in vivo (rats): intraduodenal injection, antibiotic plasma level by agar-plate bioassay. The settings on record: Dosis = 5 mg/0,5 ml. The source says: Weibliche Ratten im Gewicht von etwa 250 g wurden über Nacht fasten gelassen und mit Metofan anästhesiert. Die Antibiotika wurden in Lösung mit oder ohne Resorptionsver, stärker nach Bauchschnitt in das Duodenum unterhalb des Magenausgangs injiziert. Für Vergleichszwecke wurde die Lösung alternativ intravenös in die Schwanzvene appliziert.
Die Konzentration des Antibiotikums im Plasma der Ratte wurde nach verschiedenen Zeitintervallen nach intravenöser oder enteraler Verabreichung bestimmt. Blutproben wurden aus der Schwanzvene des Versuchstiers vor der Verabreichung des Antibiotikums und 5, 10, 20, 40, 60, 120, 240 und 360 Minuten danach entnommen, danach zentrifugiert und das Plasma bis zur Analyse eingefroren.
Antibiotika, die nicht an Plasma gebunden waren, wurden mit Wasser verdünnt und gegen in Wasser hergestellte Standards geprüft. Für gebundene Antibiotika wurde der Einfluss der Proteinbindung eliminiert durch Verdünnen aller Standardlösungen und Proben im gesammelten Plasma. Im Fall von Ceftriaxon in Cefazolin wurde der Effekt der Bindung dadurch berücksichtigt, dass Plasmaproben mit Acetonitril mit einem Verdünnungsfaktor 1:12 deproteinisiert und gegen eine Standardkurve in Wasser verdünnt gemessen wurden. Antibiotikaspiegel wurden wie unten angegeben auf Agarplatten ermittelt.
Die Platten wurden bei 37°C über Nacht bebrütet und die Hemmzonen auf die nächsten […] abgelesen. Die Berechnungen wurden mittels einer Autoassaymaschine (Giles Scientific, Inc., New York) vorgenommen. Vergleiche J.V. Bennett et al., Applied Microbiology 14, 170-177 (1966).

Series [3] in a line: Oral absorption in vivo (dogs): enteric-coated hard gelatin capsules by gavage, plasma level. The settings on record: for Cmax: male, beagle, dog, plasma. The source says:
Für diesen Versuch wurden männliche Beagle-Hunde im Gewicht von 10-14 kg verwendet, die 2-3 Hartgelatinekapseln durch die Schlundsonde erhielten. Die Kapseln hatten folgende Zusammensetzung:
Die Kapseln waren mit einem Ueberzug von Polyvinylacetatphthalat (etwa 8% des Kapselgewichtes versehen).
Die Plasmakonzentrationen wurden von Ceftriaxon vor der Verabreichung und 10, 20, 40, 60, 120, 180 und 240 Minuten nach der Verabreichung ermittelt. Die Messungen wurden in Blutplasma nach Deproteinisierung weiter oben beschrieben ermittelt.

Series [4] is described as follows: Oral absorption in vivo (monkeys): enteric-coated hard gelatin capsules by gavage, plasma bioassay. To be noted: for Cmax: monkey, plasma. The protocol: Erwachsene Affen (Papio anubis und Papio hamadryas) im Gewicht von 12-30 kg wurden über Nacht fasten gelassen, dann durch i.m.-Injektion von Ketaminhydrochlorid vor der Verabreichung des Antibiotikums sediert. Jeder Affe erhielt vier Hartgelatinekapseln durch Schlundsonde mit der folgenden Zusammensetzung:
Die Kapseln wurden mit einem Ueberzug von Polyvinylacetatphthalat (etwa 8% des Kapselgewichtes versehen).
1 ml Pro Blutproben wurden aus der Femoralregion jedes Affen mit einer heparinisierten 3-ml Spritze entnommen. Die Proben wurden vor der Verabreichung des Antibiotikums und 15, 30, 60, 120, 240, 360, 480, 600 und 720 Minuten danach entnommen. Die Blutproben wurden zentrifugiert und das Plasma nach Deproteinisierung mit Acetonitril einem Bioassay unterworfen.

A short description of series [5]: Enteral absorption in vivo (dogs): capsules through a modified Thomas cannula into the proximal jejunum, plasma level and bioavailability. The settings on record: for Cmax: beagle, dog, plasma. The protocol: Als Versuchstiere wurden sechs Beagle-Hunde im Gewicht von etwa 10-16 kg eingesetzt, denen eine modifizierte Thomaskanüle in das distale Duodenum eingesetzt worden war. […] Die Kapseln wurden durch die modifizierte Thomaskanüle in das proximale Jejunum appliziert. Die Dosierung war 20-50 mg Ceftriaxon pro kg Körpergewicht.
Die Plasmakonzentrationen von Ceftriaxon wurden vor der Verabreichung und 10, 20, 40, 60, 120, 180 und 240 Minuten nach der Verabreichung ermittelt. Zur Erstellung einer Standardkurve wurde Ceftriaxon mit normalem Hundeplasma verdünnt und deproteinisiert. Die Fläche unter der Kurve (AUC) wurde für jede Verabreichungsweise bestimmt. Aus diesen Bestimmungen wurde die Bioverfügbarkeit wie folgt berechnet. [formula]
Wenn keine i.v.-Daten für den gleichen enteral verwendeten Dosisspiegel verfügbar waren, wurde die folgende Gleichung angewandt: [formula]

The mark [6] stands for this setting: rectal suppository, Kontrolle ohne Resorptionsverstärker.
Where [7] appears, read: rectal suppository, Mit Resorptionsverstärker System: 500 mg Antibiotikum, 125 mg Laureth-12, 250 mg Labrasol, 1125 mg Witepsol H15.
Setting [8] is: both sexes, monkey, plasma, 500 mg, rectal suppository, Mit Resorptionsverstärker System: 500 mg Antibiotikum, 125 mg Laureth-12, 250 mg Labrasol, 1125 mg Witepsol H15, read-out: Cmax Bereich.
The mark [9] stands for this setting: both sexes, monkey, plasma, rectal suppository, Kontrolle ohne Resorptionsverstärker, read-out: Cmax Bereich.
Where [10] appears, read: 2-3 enteric-coated capsules each 300 mg Ceftriaxonnatrium, 225 mg Labrasol, 75 mg Laureth-12, 380 mg Witepsol H15.
Setting [11] is: Kontrollwert: Ceftriaxonnatrium 300 mg in the same capsule without absorption enhancer.
The mark [12] stands for this setting: enteral (proximal jejunum), 2 capsules with 210 ml Ceftriaxonnatrium in 280 mg WITEPSOL H15 + 157,5 mg Labrasol + 52,5 mg Laureth-12, 20-50 mg/kg.

As for `CC1(C)S[C@@H]2[C@H](NC(=O)Cc3ccccc3)C(=O)N2[C@H]1C(=O)O` [Penicillin G], the Cmax in series [1] (baboon, in vivo, rectal suppository, Kontrolle ohne Resorptionsverstärker, read-out: Cmax Bereich) was 1.2 to 2.4 µg/mL; in series [1] (baboon, in vivo, rectal suppository, Mit Resorptionsverstärker System: 500 mg Antibiotikum, 125 mg Laureth-12, 250 mg Labrasol, 1125 mg Witepsol H15, read-out: Cmax Bereich), 2 to 11.1 µg/mL; in series [2] (rat, in vivo, 5 mg, Cmax, Acconon Con + Laureth-12 (weight ratio 8:1)) it was 3.5 ± 1 µg/mL; in series [2] (rat, in vivo, 5 mg, Cmax, Kontrolle Wasser, no absorption enhancer), 0.5 ± 0.1 µg/mL; in series [2] (rat, in vivo, 5 mg, Cmax, Labrasol + Laureth-12 (weight ratio 8:1)), 5.2 ± 1.6 µg/mL; in series [2] (rat, in vivo, 5 mg, Cmax, Natriumcaprylat (30%) + Laureth-12 (weight ratio 8:1)) it was 7.4 ± 2.4 µg/mL. In addition, the “% Bioverfügbarkeit” value in series [1] (setting [6]) is 17.4 ± 8.0%; in series [1] (setting [7]), 38.2 ± 26.1%.
Regarding `Cn1nnnc1SCC1=C(C(=O)O)N2C(=O)[C@@H](NC(=O)[C@H](O)c3ccccc3)[C@H]2SC1` [Cefamandole, Cefamandol], the Cmax in series [1] (setting [8]) lay within 5.9 to 16.4 µg/mL; in series [1] (setting [9]), 2.3 to 4.6 µg/mL. In addition, the “% Bioverfügbarkeit” value in series [1] (setting [6]) is 6.0 ± 2.3%; in series [1] (setting [7]) it was 46.5 ± 16.6%.
As for `CO[C@@]1(NC(=O)Cc2cccs2)C(=O)N2C(C(=O)O)=C(COC(N)=O)CS[C@@H]21` [Cefoxitin], the Cmax in series [1] (setting [8]) lay in the range of 4.7 to 10.8 µg/mL. For the same compound, the “% Bioverfügbarkeit” value in series [1] (setting [6]) is recorded as 0%; in series [1] (setting [7]), 77.0 ± 22.5%.
Turning to Gentamicin, the Cmax came to 15.4 ± 2.3 µg/mL in series [2] (Acconon Con + Laureth-12 (weight ratio 8:1)); 3.9 µg/mL in series [2] (Kontrolle Wasser, no absorption enhancer); 9.6 ± 1.9 µg/mL in series [2] (Labrasol + Laureth-12 (weight ratio 8:1)); 14.1 ± 6.9 µg/mL in series [2] (Natriumcaprylat (30%) + Laureth-12 (weight ratio 8:1)).
In the case of `CN[C@H](CC(C)C)C(=O)N[C@H]1C(=O)N[C@@H](CC(N)=O)C(=O)N[C@H]2C(=O)N[C@H]3C(=O)N[C@H](C(=O)N[C@H](C(=O)O)c4cc(O)cc(O)c4-c4cc3ccc4O)[C@H](O)c3ccc(c(Cl)c3)Oc3cc2cc(c3O[C@@H]2O[C@H](CO)[C@@H](O)[C@H](O)[C@H]2O[C@H]2C[C@](C)(N)[C@H](O)[C@H](C)O2)Oc2ccc(cc2Cl)[C@H]1O` [Vancomycin], the Cmax was 2.9 ± 0.6 µg/mL in series [2] (female, rat, in vivo, 5 mg/0,5 ml, Cmax, Kontrolle Wasser, no absorption enhancer); 6.9 ± 1 µg/mL in series [2] (female, rat, in vivo, 5 mg/0,5 ml, Cmax, Labrasol + Laureth-12 (weight ratio 8:1)); 9.8 ± 3.5 µg/mL in series [2] (female, rat, in vivo, 5 mg/0,5 ml, Cmax, Natriumcaprylat (30%) + Laureth-12 (weight ratio 8:1)).
For `CO/N=C(\C(=O)N[C@@H]1C(=O)N2C(C(=O)O)=C(CSc3nc(=O)c(=O)[nH]n3C)CS[C@H]12)c1csc(N)n1` [Ceftriaxon], the Bioverfügbarkeit in series [3] (setting [10]) is on record as 34,2 ± 14,0%; in series [3] (setting [11]), 0%; in series [3] (formulation 300 mg Ceftriaxonnatrium, 200 mg Natriumcaprylat, 75 mg Laureth-12, 415 mg Witepsol H15), 22,4 + 13,5%; in series [4] (4 enteric-coated capsules each 300 mg Ceftriaxonnatrium, 225 mg Labrasol, 75 mg Laureth-12, 380 mg Witepsol H15) it was 10,8 ± 6,5%; in series [4] (setting [11]), 0%; in series [4] (formulation 300 mg Ceftriaxonnatrium, 75 mg Laureth-12, 415 mg Witepsol H15), 15,7 + 9,9%. Also, the Bioverfügbarkeit in series [1] (rectal, Kontrollwert: 600 mg Ceftriaxonnatrium in suppository mass without absorption enhancer) is reported as 4,3%; in series [1] (rectal, formulation 600 mg Ceftriaxonnatrium, 200 mg Natriumcaprylat, 125 mg Laureth-12, 1075 mg Witepsol H15) it was 49,3 ± 13.7%; in series [5] (setting [12]), 45,4 ± 18,2%; in series [5] (enteral, Kontrolle: solution of Ceftriaxon in water equivalent to 25 mg/kg, no absorption enhancer) it was 0%. Besides, the peak concentration (Cmax) in series [3] (300 mg per capsule, formulation 300 mg Ceftriaxonnatrium, 200 mg Natriumcaprylat, 75 mg Laureth-12, 415 mg Witepsol H15) is 14.4 µg/mL; in series [3] (setting [10]) it was 21.6 µg/mL; in series [4] (300 mg per capsule, formulation 300 mg Ceftriaxonnatrium, 200 ml Natriumcaprylat, 75 mg Laureth-12, 415 mg Witepsol H15, read-out: Cmax-Bereich), 15 to 66.3 µg/mL; in series [4] (1200 mg, 4 enteric-coated capsules each 300 mg Ceftriaxonnatrium, 225 mg Labrasol, 75 mg Laureth-12, 380 mg Witepsol H15, read-out: Cmax-Bereich) it was 5.5 to 59.8 µg/mL; in series [1] (setting [8]) it was 18.2 to 49.6 µg/mL; in series [1] (both sexes, monkey, plasma, 600 mg, rectal, Kontrollwert: 600 mg Ceftriaxonnatrium in suppository mass without absorption enhancer, read-out: Cmax-Bereich) it was 0.3 to 9 µg/mL. Also, the Cmax in series [1] (both sexes, monkey, plasma, 600 mg, rectal, formulation 600 mg Ceftriaxonnatrium, 200 mg Natriumcaprylat, 125 mg Laureth-12, 1075 mg Witepsol H15, read-out: Cmax-Bereich) is 68.1 to 1000 µg/mL; in series [1] (setting [9]) it was 0.3 to 9 µg/mL; in series [2] (female, rat, plasma, 5 mg/0,5 ml, Cmax, Acconon Con + Laureth-12 (weight ratio 8:1)), 38.8 ± 22.6 µg/mL; in series [2] (female, rat, plasma, 5 mg/0,5 ml, Cmax, Kontrolle Wasser, no absorption enhancer), 2.4 ± 1.9 µg/mL; in series [2] (female, rat, plasma, 5 mg/0,5 ml, Cmax, Labrasol + Laureth-12 (weight ratio 8:1)), 106 ± 23 µg/mL; in series [2] (female, rat, plasma, 5 mg/0,5 ml, Cmax, Natriumcaprylat (30%) + Laureth-12 (weight ratio 8:1)) it was 53.7 ± 13.3 µg/mL. Moreover, the Cmax came out at 19.5 µg/mL in series [5] (setting [12]) and 0.5 µg/mL in series [5] (other: enteral, enteral, Kontrolle: solution of Ceftriaxon in water equivalent to 25 mg/kg, no absorption enhancer). Besides, the “% Bioverfügbarkeit” value in series [1] (setting [6]) is recorded as 4.3 ± 2.8%; in series [1] (setting [7]) it was 31.5 ± 13.1%.

For orientation: Cmax means the peak of the concentration-time curve.
